Laboratory results from the CheMixHub viscosity set.

Test: xn = mol fraction of the nth substance listed

CCCCCCO + COC(=O)OC
Details | viscosity [mPa·s]
293.15 K, 100 kPa, x2 = 0.1003 | 3.53
293.15 K, 100 kPa, x2 = 0.1998 | 2.47
293.15 K, 100 kPa, x2 = 0.3011 | 1.87
293.15 K, 100 kPa, x2 = 0.4001 | 1.51
293.15 K, 100 kPa, x2 = 0.5007 | 1.24
293.15 K, 100 kPa, x2 = 0.5987 | 0.95
293.15 K, 100 kPa, x2 = 0.7003 | 0.77
293.15 K, 100 kPa, x2 = 0.8013 | 0.71
293.15 K, 100 kPa, x2 = 0.9002 | 0.61
293.15 K, 101 kPa, x2 = 0.04349 | 4.578
293.15 K, 101 kPa, x2 = 0.1014 | 3.717
293.15 K, 101 kPa, x2 = 0.1936 | 2.761
293.15 K, 101 kPa, x2 = 0.3033 | 2.046
293.15 K, 101 kPa, x2 = 0.4078 | 1.6
293.15 K, 101 kPa, x2 = 0.5026 | 1.302
293.15 K, 101 kPa, x2 = 0.602 | 1.06
293.15 K, 101 kPa, x2 = 0.699 | 0.883
293.15 K, 101 kPa, x2 = 0.8055 | 0.756
293.15 K, 101 kPa, x2 = 0.9079 | 0.685
293.15 K, 101 kPa, x2 = 0.9562 | 0.648
298.15 K, 100 kPa, x2 = 0.1003 | 3.06
298.15 K, 100 kPa, x2 = 0.1998 | 2.17
298.15 K, 100 kPa, x2 = 0.3011 | 1.66
298.15 K, 100 kPa, x2 = 0.4001 | 1.34
298.15 K, 100 kPa, x2 = 0.5007 | 1.12
298.15 K, 100 kPa, x2 = 0.5987 | 0.92
298.15 K, 100 kPa, x2 = 0.7003 | 0.77
298.15 K, 100 kPa, x2 = 0.8013 | 0.66
298.15 K, 100 kPa, x2 = 0.9002 | 0.57
303.15 K, 100 kPa, x2 = 0.1003 | 2.67
303.15 K, 100 kPa, x2 = 0.1998 | 1.93
303.15 K, 100 kPa, x2 = 0.3011 | 1.48
303.15 K, 100 kPa, x2 = 0.4001 | 1.23
303.15 K, 100 kPa, x2 = 0.5007 | 1.02
303.15 K, 100 kPa, x2 = 0.5987 | 0.84
303.15 K, 100 kPa, x2 = 0.7003 | 0.72
303.15 K, 100 kPa, x2 = 0.8013 | 0.61
303.15 K, 100 kPa, x2 = 0.9002 | 0.54
303.15 K, 101 kPa, x2 = 0.04993 | 3.355
303.15 K, 101 kPa, x2 = 0.1121 | 2.759
303.15 K, 101 kPa, x2 = 0.1985 | 2.135
303.15 K, 101 kPa, x2 = 0.3013 | 1.623
303.15 K, 101 kPa, x2 = 0.4548 | 1.153
303.15 K, 101 kPa, x2 = 0.4939 | 1.069
303.15 K, 101 kPa, x2 = 0.5585 | 0.951
303.15 K, 101 kPa, x2 = 0.7038 | 0.747
303.15 K, 101 kPa, x2 = 0.7977 | 0.649
303.15 K, 101 kPa, x2 = 0.9079 | 0.571
303.15 K, 101 kPa, x2 = 0.9534 | 0.548
308.15 K, 100 kPa, x2 = 0.1003 | 2.35
308.15 K, 100 kPa, x2 = 0.1998 | 1.71
308.15 K, 100 kPa, x2 = 0.3011 | 1.33
308.15 K, 100 kPa, x2 = 0.4001 | 1.07
308.15 K, 100 kPa, x2 = 0.5007 | 0.93
308.15 K, 100 kPa, x2 = 0.5987 | 0.78
308.15 K, 100 kPa, x2 = 0.7003 | 0.67
308.15 K, 100 kPa, x2 = 0.8013 | 0.57
308.15 K, 100 kPa, x2 = 0.9002 | 0.53
313.15 K, 100 kPa, x2 = 0.1003 | 2.07
313.15 K, 100 kPa, x2 = 0.1998 | 1.53
313.15 K, 100 kPa, x2 = 0.3011 | 1.21
313.15 K, 100 kPa, x2 = 0.4001 | 0.99
313.15 K, 100 kPa, x2 = 0.5007 | 0.86
313.15 K, 100 kPa, x2 = 0.5987 | 0.72
313.15 K, 100 kPa, x2 = 0.7003 | 0.62
313.15 K, 100 kPa, x2 = 0.8013 | 0.53
313.15 K, 100 kPa, x2 = 0.9002 | 0.48
313.15 K, 101 kPa, x2 = 0.05023 | 2.521
313.15 K, 101 kPa, x2 = 0.1223 | 2.039
313.15 K, 101 kPa, x2 = 0.2131 | 1.599
313.15 K, 101 kPa, x2 = 0.3291 | 1.223
313.15 K, 101 kPa, x2 = 0.4005 | 1.061
313.15 K, 101 kPa, x2 = 0.4874 | 0.911
313.15 K, 101 kPa, x2 = 0.5997 | 0.76
313.15 K, 101 kPa, x2 = 0.6524 | 0.713
313.15 K, 101 kPa, x2 = 0.7994 | 0.572
313.15 K, 101 kPa, x2 = 0.9089 | 0.514
313.15 K, 101 kPa, x2 = 0.9495 | 0.501
318.15 K, 100 kPa, x2 = 0.1003 | 1.83
318.15 K, 100 kPa, x2 = 0.1998 | 1.37
318.15 K, 100 kPa, x2 = 0.3011 | 1.09
318.15 K, 100 kPa, x2 = 0.4001 | 0.91
318.15 K, 100 kPa, x2 = 0.5007 | 0.79
318.15 K, 100 kPa, x2 = 0.5987 | 0.67
318.15 K, 100 kPa, x2 = 0.7003 | 0.58
318.15 K, 100 kPa, x2 = 0.8013 | 0.51
318.15 K, 100 kPa, x2 = 0.9002 | 0.46
323.15 K, 100 kPa, x2 = 0.1003 | 1.63
323.15 K, 100 kPa, x2 = 0.1998 | 1.24
323.15 K, 100 kPa, x2 = 0.3011 | 0.99
323.15 K, 100 kPa, x2 = 0.4001 | 0.84
323.15 K, 100 kPa, x2 = 0.5007 | 0.73
323.15 K, 100 kPa, x2 = 0.5987 | 0.63
323.15 K, 100 kPa, x2 = 0.7003 | 0.55
323.15 K, 100 kPa, x2 = 0.8013 | 0.48
323.15 K, 100 kPa, x2 = 0.9002 | 0.43
